Take `CSc1ccc2c(C(=O)C(F)(F)F)c[nH]c2c1`: the melting point (in general, the temperature, or range, at which the solid turns liquid) was in the range of 237 to 239 °C.

Regarding `CC(=O)Nc1cccc(-c2csc(NC(N)=S)n2)c1C`, the melting point lay within 228 to 230 °C.

With `Cc1nn2c(c1C(N)=O)NCC=C2c1cc(Cl)ccc1Cl`, the melting point was 93 to 96 °C.

Regarding `O=[N+]([O-])C=C1SCCCN1S(=O)(=O)CCCO`, the melting point fell in the range of 80 to 83 °C.

With `Cc1cc(C)c(CC(=O)N(C)CC(=O)O)c(C)c1`, the melting point was 140 °C.

The molecule `CCCOc1ccccc1-c1nc2nnc(SC)nc2c(=O)[nH]1` registered a melting point of 195 to 197 °C.

Take `Cc1cccc(NC(=O)NCC(=O)N(CC(=O)N(C)c2cccc(C)c2)c2ccccc2)c1`: the melting point stood at 165 °C.

Molecule `CCCCCCCCCCNC(=O)N(C)O` returned a melting point of 74 to 76 °C.

On to `c1ccc2c(c1)CCc1c(CN3CCN(c4cc5ccccc5cn4)CC3)n[nH]c1-2`, for which the melting point is 228 to 230 °C.

On to `O=c1ccn(-c2ccc(F)cc2)nc1-c1ccnn1-c1ccccc1`, for which the melting point is 252 to 253 °C.

For the molecule `COc1ccc(C2=C(/C=C/C(=O)O)CCc3cc(OC)ccc32)cc1`, the melting point was 222 to 224 °C.

Regarding `CN(C)c1cc2c(cc1-c1ccc3cc(C=C4SC(=S)N(CC(=O)O)C4=O)ccc3c1)C(C)(C)CCC2(C)C`, the melting point lay within 194 to 196 °C.

Turning to `O=P(NP(=S)(Oc1ccccc1)Oc1ccccc1)(Oc1ccccc1)Oc1ccccc1`, the melting point lay within 103 to 105 °C.

On to `O=S(=O)(O)c1nc2cc(Cl)c(Cl)cc2[nH]1`, for which the melting point lay in the range of 353 to 354 °C.

Regarding `CCc1noc(C)c1-c1[nH]c2ccccc2c1CCCCN(C)C`, the melting point is 156 to 158 °C.

Molecule `COC(=O)C(C)Oc1ccccc1S(N)(=O)=O` (stereo not drawn) yielded a melting point of 140 to 142 °C.

The molecule `NC(=O)N1c2ccccc2C=C(Cl)c2ccccc21` returned a melting point of 183 to 185 °C.

`COc1cccc(CNC(=O)c2ccc(COC3CCCCO3)cc2)c1` (stereo not drawn) showed a melting point of 66 to 68.5 °C.

The molecule `COC(=O)[C@H](Cc1ccc(NC(=S)NCCCc2ccccc2)cc1)NC(=O)[C@@H]1CCCN1S(=O)(=O)c1ccc(C)cc1` returned a melting point of 74 to 80 °C.

As for `COc1ccc2c(Cc3c(Cl)cncc3Cl)nnc(N3CCN(C)CC3)c2c1`, the melting point was in the range of 160 to 162 °C.

`CCCN1C(=O)C2(COc3cc4c(cc32)OCO4)c2ccccc21` (stereo not drawn) registered a melting point of 158 to 160 °C.

`CCc1nc2ccn(-c3ccccc3)n2c(=O)c1C(=O)O` yielded a melting point of 119 to 120 °C.

The molecule `COc1ccc(C2=C(/C=C/C(=O)Oc3ccc([N+](=O)[O-])cc3)CCc3cc(OC)ccc32)cc1` yielded a melting point of 151 to 152 °C.

`ClCCCCOc1ccc(Br)c(CCOCc2ccccc2)c1` displayed a melting point of 65 to 66 °C.

With `COc1cc2ccc(C3CO3)cc2cc1OC` (stereo not drawn), the melting point fell in the range of 115 to 117 °C.

The molecule `CCCCCCCCCCCCCCOc1ccc(CC(=O)OC)cc1Cl` displayed a melting point of 24 to 25 °C.

In turn, `Cc1cc(C)cc(-c2cc(O)c(Sc3ccccc3CC3CC3)c(=O)o2)c1` came in with a melting point of 168 °C.

The molecule `COc1ccc2c(c1)c1c3c(ccc1n2C)C(=O)N(CCN(C)C)C3=O` gave a melting point of 137 to 138 °C.

On to `CN1CCN(CC/C=C/c2ccc3ncc(C#N)c(Nc4ccc(Cl)cc4Cl)c3c2)CC1`, for which the melting point lay in the range of 97 to 98 °C.

As to `CCOC(=O)c1cc2c(OCc3ccccc3)ccc3c(CC)c(-c4ccc(OCc5ccccc5)cc4)c1n23`, the melting point is 114 to 116 °C.

`Cc1cc(C)cc(-c2c(-c3ccncc3)sc3nc(=O)cc(N)n23)c1`: the melting point is 275 to 278 °C.

`CN=C(NC#N)NCC(O)COc1cccc(CN2CCCCC2)c1` (stereo not drawn) registered a melting point of 45 to 47 °C.

Consider `Cc1ncc(Cn2c(NC3CCNCC3)nc3ccccc32)o1`, for which the melting point was 227 °C.

With `OC(CC1CCNCC1)c1cc(-c2ccccc2)nc2ccccc12` (stereo not drawn), the melting point turned out to be 147 °C.

Regarding `CCCN(CCC)CCc1ccc(O)c(NC(N)=O)c1`, the melting point lay within 168 to 171 °C.

In turn, `CCCC(=O)Oc1ccc(OC(=O)CCC)c(C#N)c1C#N` yielded a melting point of 86 to 87 °C.

For the molecule `COc1cccc2c3c(cnc12)CCCN3c1ccccc1C`, the melting point is 160 to 161 °C.

Molecule `CC(=N)NS(=O)(=O)C=Cc1ccccc1[N+](=O)[O-]` yielded a melting point of 175 to 178 °C.

Molecule `COc1ccc2cc(CCC(C)O)cc(F)c2c1` (stereo not drawn) registered a melting point of 58 to 60 °C.

In turn, `O=c1c(Br)cn(Cc2ccccc2)cc1Cc1ccccc1` registered a melting point of 120 to 121 °C.

In the case of `COc1ccc(C2=NN(c3ccccc3)C(=O)[C@H]3CC=CC[C@@H]23)cc1OC1CCCC1` (relative stereo), the melting point lay in the range of 134 to 135 °C.

Consider `Cc1cc(COc2nn3c(-c4ccccc4F)nncc3c2-c2ccccc2F)nn1C`, for which the melting point amounted to 183 °C.

As to `CSc1nc2ccc3c(c2o1)C(CCNC(C)=O)CC3` (stereo not drawn), the melting point lay within 115 to 117 °C.

In turn, `CCOCc1nc2c(N)nc3c(c2n1CC1(OCCS(C)(=O)=O)CCC1)CCCC3` returned a melting point of 186 to 188 °C.

Regarding `CC(C)NC(=O)NC/C=C\COc1cc(CN2CCCCC2)ccn1`, the melting point was 90 to 92 °C.

The molecule `N[C@@H]1CN(c2c(F)cc3c(=O)c(C(=O)O)cn(C4CC4)c3c2F)C[C@@H]1n1ccnn1` (relative stereo) gave a melting point of 245 to 247 °C.

`CCOC(=O)C1=C(C)NC(N)=C(C(=O)OC(C)C)C1c1ccccc1C#N` (stereo not drawn) returned a melting point of 200 °C.

Turning to `COc1cc(OC)c2c(C)c(CCOS(C)(=O)=O)c(=O)oc2c1`, the melting point fell in the range of 170 to 172 °C.

`O=C(O)[C@H]1CN(c2ccc(C3=CCSCC3)c(F)c2)C(=O)O1` came in with a melting point of 106 to 110 °C.

The molecule `Cn1cnc(COc2nn3c(-c4ccccc4)nnc3cc2-c2ccccc2)n1` gave a melting point of 229 to 233 °C.

As to `CCn1c2ccc(C)cc2c2ccc3ccccc3c21`, the melting point was 111 to 114 °C.

Molecule `CC(C)(O)c1ccc(CNC(=O)c2cccnc2Oc2cccc(F)c2)cc1` registered a melting point of 106 to 108 °C.

Consider `Cc1cc(Nc2ncnc3ccn(CCNC(=O)CS(C)(=O)=O)c23)ccc1Oc1cccc(OC(F)(F)F)c1`, for which the melting point lay in the range of 106 to 108 °C.

With `COc1ccc2c(c1)CC(Nc1ccc(OCc3ccccc3)cc1)C2` (stereo not drawn), the melting point is 55 to 57 °C.

For `OC1CSC(Oc2cc(F)cnc2Cl)C(O)C1O` (stereo not drawn), the melting point amounted to 143 °C.

`CC(C)(C)NC(=O)[C@@H]1C[C@@H]2CCCC[C@@H]2CN1C[C@@H](O)[C@H](Cc1ccccc1)NC(=O)[C@@H](Nc1nc(CO)cs1)C(C)(C)S(C)(=O)=O` had a melting point of 126 °C.

Molecule `CC(O)c1ccc(-c2ccc(N)cc2)cc1` (stereo not drawn) yielded a melting point of 111 to 115 °C.

In turn, `Clc1ccc2c(ccn2C2=CCN(CCC3Cc4ccccc4C3)CC2)c1` returned a melting point of 93 to 94 °C.

For the molecule `CC(=O)NCCN1CCCc2ccc(C)cc21`, the melting point came to 99 °C.

On to `COC(=O)c1cc(-c2ccc(OC)c(OC)c2)nn(CC(C)C)c1=O`, for which the melting point is 104 to 106 °C.

In turn, `CCOC(=O)c1cnn2c(C(F)(F)F)cc(-c3ccc(C(F)(F)F)cc3)cc12` yielded a melting point of 130 °C.

`COC(=O)C1CCC2(C)C(=CC(=O)C3C2CCC2(C)C(C(=O)OC)CCC32)C1` (stereo not drawn) showed a melting point of 167 to 169 °C.

In the case of `COc1ccc(OC2CN(S(=O)(=O)c3ccc(C)cc3)CCc3ccccc32)cc1` (stereo not drawn), the melting point is 84 to 85 °C.

`COC(=O)C(C)(C)Cc1ccc2cc(CC(C)(C)C(=O)OC)ccc2c1` registered a melting point of 108 to 110 °C.

Molecule `CCCCC(=O)Nc1ccc(C(F)(F)F)c(-n2nc(CC)n(Cc3ccc(-c4ccccc4S(=O)(=O)NC(C)(C)C)cc3F)c2=O)c1` returned a melting point of 243 to 245 °C.

`O=[N+]([O-])c1oc2ccc(CN3CCCC3)cc2c1-c1ccccc1` came in with a melting point of 111 to 112 °C.

In turn, `Cc1ccc(S(=O)(=O)NC(=O)OCCc2ccc(-n3c(CCCc4ccncc4)nc4cc(C(F)(F)F)c(Cl)cc43)cc2)cc1` had a melting point of 80 to 87 °C.

`CC(=O)c1ccc(OC(CCCCC(=O)O)c2ccccc2)cc1O` (stereo not drawn): the melting point was in the range of 91 to 93 °C.

Take `O=C(CC1(c2ccccc2)CCC1)C(=O)Nc1ccc2c(c1)COC2=O`: the melting point lay in the range of 142 to 146 °C.

In turn, `COC(=O)COc1ccc(SCc2cc(-c3ccc(Cl)cc3)on2)cc1C` had a melting point of 79 to 80 °C.

In turn, `CN1CCN(c2cccc3ccc(Nc4ncccc4[N+](=O)[O-])cc23)CC1` had a melting point of 128 to 129 °C.

Consider `NC(=O)CC(=O)c1ccc(-c2ccc(Cl)cc2)o1`, for which the melting point lay in the range of 180 to 181 °C.

In turn, `CC(=O)N1c2ccccc2Sc2nccnc21` showed a melting point of 174 to 175 °C.

As for `CC(C)(C)OC(=O)NCCN(O)C(N)=O`, the melting point was 144 to 146 °C.

Molecule `N#CC#Cc1ccc(O)cc1` showed a melting point of 134 to 137 °C.

The molecule `CCOC(=O)CNC(=O)[C@H](CC(C)C)NC(=O)[C@@H]1CCCN1C(=O)OCc1ccccc1` came in with a melting point of 149 to 150 °C.

In the case of `CCOC(=O)CCCCCCCC1CC2=C(C1)C(=O)C(OC)=C(OC)C2=O`, the melting point lay within 39 to 40 °C.

`COC(=O)c1ccccc1Nc1cccc(C(C)O)c1Cl` (stereo not drawn) registered a melting point of 94 to 95 °C.

Turning to `CC(O)CN1C(=O)N(CN2C(=O)N(CC(C)O)C(=O)C2(C)C)C(C)(C)C1=O` (stereo not drawn), the melting point was in the range of 131 to 133 °C.

Consider `Cc1ccccc1Oc1cccc(CC(=O)O)c1O`, for which the melting point lay in the range of 116 to 117 °C.

`CCCC[C@H](NC(=O)[C@H](CC(C)C)NC(=O)c1ccc(C(=O)OC)cc1)C(=O)CSCc1ccco1` returned a melting point of 100 to 102 °C.

Take `CC1(C)CC(=O)Nc2cc3nc(-c4ccncc4)[nH]c3cc21`: the melting point lay within 201 to 202 °C.

The molecule `CCOC(=O)C(=O)c1cn(Cc2ccc(C(C)(C)C)cc2)c2cc(-c3ccc(OC(F)(F)F)cc3)ccc12` showed a melting point of 146 to 147 °C.

Molecule `OCCCc1conc1-c1ccc(F)c(Br)c1` yielded a melting point of 40 to 41 °C.

Take `COc1ccc(-c2cc(C(C)(C)C)c(O)c(C(C)(C)C)c2)cc1`: the melting point fell in the range of 109 to 110 °C.

The molecule `CC(C)(C#N)c1ccc(C#N)cc1` yielded a melting point of 122 to 123 °C.

In turn, `CCCCCCCCCC(C)(C)c1cc(C(=O)O)ccc1OC` returned a melting point of 112 °C.

With `CC1(Br)CCc2cc3c(cc2C1=O)CCO3` (stereo not drawn), the melting point was in the range of 95 to 98 °C.

For the origin of these results see a melting point compilation (Tetko et al.; mined from patent text by program, amines drawn as free bases though some values may be those of a salt).
